{"source": "patent US20250177398A1", "about": "“CARBONIC ANHYDRASE ENZYMES FOR REGULATING MAST CELL HEMATOPOIESIS AND TYPE 2 INFLAMMATION” (RUTGERS, THE STATE UNIVERSITY OF NEW JERSEY, priority 2015, published 2025)", "key": {"[1]": {"test_system": "Aspergillus fumigatus", "experiment": "Aspergillus fumigatus (FLARE conidia) lung infection", "assay_type": "in vivo, mouse", "settings": "A. fumigatus-infected mice, 2-3 mg MZ i.p. daily, 72 hours post-infection (FIGS. 3H-3J)", "procedure": "A. fumigatus strain Af293 was grown on glucose minimal media (GMM) agar plates for 3 days or Sabouraud dextrose agar (SDA) for 7-10 days at 37° C., respectively. Conidia were harvested by adding 0.01% Tween 80 to plates and gently scraping conidia from the plates using a cell scraper. Conidia were then filtered through sterile Miracloth, were washed and resuspended in phosphate buffered saline (PBS), and counted on a hemocytometer. FLARE conidia were prepared as previously described (Espinosa, et al., 2014. PLOS Pathog 10:e1003940). Mice were challenged with 5×10^7 A. fumigatus conidia intratracheally (i.t.) as described previously (Espinosa, et al., 2014. PLOS Pathog 10:e1003940). Mice were treated with vehicle (1:5 DMSO to PBS) or 2-3 mg of MZ i.p. daily and sacrificed 72 hours post-infection. Bronchoalveolar lavage (BAL) fluid was collected by washing the lungs with 2 mL of PBS containing 0.05M EDTA. After collection of the BAL fluid, lung samples were minced in RPMI containing 100 units/mL of collagenase (Gibco) and incubated at 37° C. for 60 minutes, disrupted and filtered. Subsequently, red blood cells were lysed using a Tris ammonium chloride solution. Analysis of neutrophils was conducted using a panel of cell surface markers: CD45, CD11b, and Ly6G as previously described (Espinosa, et al., 2014. PLOS Pathog 10:e1003940). […]"}, "[2]": {"test_system": "Trichinella spiralis", "experiment": "Trichinella spiralis infection of mice", "assay_type": "in vivo, mouse", "settings": "T. spiralis-infected mice", "procedure": "Methods for maintenance, recovery, infection and isolation of Trichinella larvae were performed as previously described (Urban, et al., 2000. J Immunol 164:2046-2052). Mice were infected with 500 Trichinella muscle larvae by oral gavage and were treated with vehicle (1:5 DMSO to PBS) or 2-3 mg of MZ i.p. daily; mice were sacrificed between 10-11 days post-infection. At necropsy, single cell suspensions of mLNs and spleens were prepared as previously described (Giacomin, et al., 2012. Journal of immunology (Baltimore, Md.: 1950) 189:4371-4378) for basophil and mast cell analysis. Blood was collected and serum was isolated for analysis of Mcpt1 and IgE. Sections (1 cm) of small intestine (jejunum) were collected for real-time PCR and histological analysis. Remaining sections of small intestine were slit lengthwise, rinsed in PBS, and placed in HBSS for 4 hours at 37° C. and adult worms were quantified by microscopic analysis as previously described (Urban, et al., 2000. J Immunol 164:2046-2052). Rag1^−/− mice were injected (i.p.) with a combination of recombinant IL-3 (1 μg) and α-IL-3 antibody (0.5 μg) (BioLegend: clone MP2-8F8) in 200 μl PBS every 3 days for 7-10 days. IL-3C-treated mice were treated with MZ (2 mg) or vehicle (DMSO) every day.\nRNA from sections of small intestine was isolated by homogenization in TRIzol (Invitrogen) followed by phenol-chloroform extraction and isopropanol precipitation. cDNA was generated per standard protocol with Superscript reverse transcriptase (Invitrogen) and used as input for real-time PCR. Real-time data were analyzed using the ΔΔCT method using SYBR Green chemistry (Applied Biosystems) with β-actin serving as the endogenous housekeeping gene. All reactions were run on an ABI 7500 Fast Real-Time PCR System (Applied Biosystems). Samples were normalized to naïve controls. The following QuantiTech primer assays from Qiagen were used: Mcpt1 (QT00157864), IL-4 (QT00160678), IL-9 (QT00107555), Arg1 (QT00134288), Retnla (QT00254359), Car1 (QT01058113) and Car2 (QT00494592).\nSingle cell suspensions were made from mesenteric, or skin draining lymph nodes. Lymph node cells were cultured in RPMI complete medium and treated with and without anti-CD3 (BD Pharmingen: clone 145-2C11) and anti-CD28 antibodies (BD Pharmingen: clone 37.51) for 72 hours. Standard sandwich ELISA (eBioscience) was performed to measure IL-4 (clones 11B11 and BVD6-24G2), IL-5 (clones TRFK5 and TRFK4) and IL-13 (clones eBio13A and eBio1316H) levels in the cell-free supernatants. Serum quantities of Mcpt1 and IgE were measured by commercial sandwich ELISA kits (BD Biosciences, eBioscience)."}, "[3]": {"test_system": "BM cells (macrophage development)", "experiment": "Murine macrophage cultures: BM cells with L-cell supernatant", "assay_type": "cell-based, mouse", "settings": "30% L-cell supernatant, 30 μg/mL MZ, day 5 (FIG. 1G)", "procedure": "BM cells were isolated from the femur of WT mice and cultured in the presence of 30% L-cell supernatant and vehicle (1:10 DMSO to RPMI complete media) or 30 μg/mL MZ. Fresh macrophage medium with either vehicle or MZ was added daily and macrophage cell populations were evaluated on day 5 post-culture"}}}
{"molecule": "CC(=O)/N=c1/sc(S(N)(=O)=O)nn1C", "note": "[MZ, methazolamide]", "values": [{"measurement": "fungal clearance", "setting": "[1]", "result": "increased"}, {"measurement": "neutrophil responses", "setting": "[1]", "result": "increased"}, {"measurement": "type 2 responses (mLN cell IL-4, IL-5, IL-13; intestinal il4, il9, arg1, retnla; serum IgE)", "setting": "[2]; 2-3 mg MZ i.p. daily (FIG. 3A-C)", "result": "significantly reduced"}, {"measurement": "worms recovered from the intestines (worm burden)", "setting": "[2]; 2-3 mg MZ i.p. daily (FIG. 3D)", "result": "significantly more"}, {"measurement": "infection-induced basophilia (splenic basophils)", "setting": "[2]; 2-3 mg MZ i.p. daily (FIGS. 2F-2G)", "result": "no effect"}, {"measurement": "mast cell responses (mLN mast cells, serum Mcpt1, intestinal mcpt1 expression, intestinal mast cells by histology)", "setting": "[2]; 2-3 mg MZ i.p. daily, day 10-11 (FIGS. 2A-2E)", "result": "significantly reduced"}, {"measurement": "macrophage development", "setting": "[3]", "result": "no effect"}]}
